Earlier results in patent US10702472B2, “Production method of edible sustained-release functional material and edible sustained-release functional material” (AOBAKASEI KABUSHIKI KAISHA, priority 2017, dated 2020).

Conditions: generally known value

- collapse temperature: −40 °C
SMILES: O=C[C@H](O)[C@@H](O)[C@H](O)[C@H](O)CO [glucose]
